Data as given in publication PMC8231556, “Inhibiting Endothelial Cell Function in Normal and Tumor Angiogenesis Using BMP Type I Receptor Macrocyclic Kinase Inhibitors” (Cancers, 2021).

Columns and labels:
Test in all cases: radiometric kinase profiling (33 PanQinase)
Assay type in all cases: biochemical
AURKB = molecular target: T1, AURKB (Homo sapiens, UniProt Q96GD4); conditions: read-out: Inhibitory effect (%) AURKB
T1 construct: purchased Proqinase, Germany
How it was run: (§1)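 Enzyme/substrate mixes were incubated with [γ-33P]-ATP and compound (added as a 0.1 μM solution in 10% DMSO) at 30 °C for 60 min, then stopped with H3PO4 and washed with NaCl. 33P incorporation was scintillation-counted, and residual activity (%) was normalized to untreated control and background.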

FER = molecular target: T2, FER (Homo sapiens, UniProt P16591); conditions: read-out: Inhibitory effect (%) FER
T2 construct: purchased ProQinase (33PanQinase Activity Assay)
T2 sequence (P16591 whole entry): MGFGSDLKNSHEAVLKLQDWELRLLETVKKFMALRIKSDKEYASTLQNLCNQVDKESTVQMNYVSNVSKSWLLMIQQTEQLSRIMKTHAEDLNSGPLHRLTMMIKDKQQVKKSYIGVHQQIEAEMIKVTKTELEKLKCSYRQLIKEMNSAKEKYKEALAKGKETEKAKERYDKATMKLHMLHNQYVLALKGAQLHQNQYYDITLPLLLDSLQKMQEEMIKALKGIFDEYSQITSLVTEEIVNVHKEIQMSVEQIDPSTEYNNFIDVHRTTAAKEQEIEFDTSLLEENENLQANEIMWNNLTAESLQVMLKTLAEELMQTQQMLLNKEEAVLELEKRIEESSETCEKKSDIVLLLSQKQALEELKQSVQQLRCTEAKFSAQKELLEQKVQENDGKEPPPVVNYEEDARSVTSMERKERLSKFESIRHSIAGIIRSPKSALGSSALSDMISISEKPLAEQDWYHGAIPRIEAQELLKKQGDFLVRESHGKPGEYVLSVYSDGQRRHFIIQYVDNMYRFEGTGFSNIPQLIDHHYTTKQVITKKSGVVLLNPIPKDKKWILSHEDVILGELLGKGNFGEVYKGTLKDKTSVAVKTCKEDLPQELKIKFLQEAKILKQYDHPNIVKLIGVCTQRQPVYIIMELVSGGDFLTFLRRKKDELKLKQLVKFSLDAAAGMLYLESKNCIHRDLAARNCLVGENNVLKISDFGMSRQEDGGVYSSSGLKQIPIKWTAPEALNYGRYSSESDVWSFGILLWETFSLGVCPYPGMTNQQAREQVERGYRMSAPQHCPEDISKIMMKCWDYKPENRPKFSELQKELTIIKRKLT
How it was run: as §1

NTRK1 = molecular target: T3, NTRK1 (Homo sapiens, UniProt P04629); conditions: read-out: Inhibitory effect (%) NTRK1
T3 construct: purchased ProQinase (33PanQinase Activity Assay)
T3 sequence (P04629 33-796): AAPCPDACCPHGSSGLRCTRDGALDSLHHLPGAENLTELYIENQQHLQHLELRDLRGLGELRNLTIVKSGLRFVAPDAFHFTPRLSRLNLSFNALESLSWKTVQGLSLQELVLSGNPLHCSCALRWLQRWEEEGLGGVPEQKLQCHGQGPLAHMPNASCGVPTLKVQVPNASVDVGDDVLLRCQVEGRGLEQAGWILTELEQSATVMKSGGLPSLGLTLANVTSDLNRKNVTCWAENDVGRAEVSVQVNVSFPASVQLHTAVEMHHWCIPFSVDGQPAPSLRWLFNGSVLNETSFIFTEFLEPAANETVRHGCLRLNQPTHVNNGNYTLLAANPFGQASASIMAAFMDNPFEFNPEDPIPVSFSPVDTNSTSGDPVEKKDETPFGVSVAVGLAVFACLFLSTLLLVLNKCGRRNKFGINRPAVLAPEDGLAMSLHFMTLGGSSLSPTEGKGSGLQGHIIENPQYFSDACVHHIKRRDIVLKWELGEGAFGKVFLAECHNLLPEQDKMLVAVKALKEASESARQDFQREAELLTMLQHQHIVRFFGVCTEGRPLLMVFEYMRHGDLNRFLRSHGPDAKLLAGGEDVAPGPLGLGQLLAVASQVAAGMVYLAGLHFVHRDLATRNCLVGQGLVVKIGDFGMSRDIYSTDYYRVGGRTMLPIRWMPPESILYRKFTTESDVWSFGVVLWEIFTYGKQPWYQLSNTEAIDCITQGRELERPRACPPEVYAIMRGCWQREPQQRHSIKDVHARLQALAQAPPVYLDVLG
How it was run: as §1

ABL1 = molecular target: T4, ABL1 (Homo sapiens, UniProt P00519); conditions: read-out: Inhibitory effect (%) ABL1
T4 construct: purchased Proqinase, Germany
How it was run: as §1

MAPK9 = molecular target: T5, MAPK9 (Homo sapiens, UniProt P45984); conditions: read-out: Inhibitory effect (%) MAPK9
T5 construct: purchased ProQinase (33PanQinase Activity Assay)
T5 sequence (P45984 whole entry): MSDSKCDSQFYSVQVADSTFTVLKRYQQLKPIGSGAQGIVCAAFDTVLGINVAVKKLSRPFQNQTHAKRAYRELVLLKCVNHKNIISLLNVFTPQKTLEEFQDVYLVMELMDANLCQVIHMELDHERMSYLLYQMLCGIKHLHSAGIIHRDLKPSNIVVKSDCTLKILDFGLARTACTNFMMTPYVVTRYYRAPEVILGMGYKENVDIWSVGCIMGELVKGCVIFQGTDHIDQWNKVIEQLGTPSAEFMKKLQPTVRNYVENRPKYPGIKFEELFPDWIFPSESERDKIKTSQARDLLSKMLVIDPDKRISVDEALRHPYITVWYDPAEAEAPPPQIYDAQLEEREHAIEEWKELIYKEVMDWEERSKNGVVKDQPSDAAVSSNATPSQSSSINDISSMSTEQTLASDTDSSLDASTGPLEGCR
How it was run: as §1

RIPK2 = molecular target: T6, RIPK2 (Homo sapiens, UniProt O43353); conditions: read-out: Inhibitory effect (%) RIPK2
T6 construct: purchased ProQinase (33PanQinase Activity Assay)
T6 sequence (O43353 whole entry): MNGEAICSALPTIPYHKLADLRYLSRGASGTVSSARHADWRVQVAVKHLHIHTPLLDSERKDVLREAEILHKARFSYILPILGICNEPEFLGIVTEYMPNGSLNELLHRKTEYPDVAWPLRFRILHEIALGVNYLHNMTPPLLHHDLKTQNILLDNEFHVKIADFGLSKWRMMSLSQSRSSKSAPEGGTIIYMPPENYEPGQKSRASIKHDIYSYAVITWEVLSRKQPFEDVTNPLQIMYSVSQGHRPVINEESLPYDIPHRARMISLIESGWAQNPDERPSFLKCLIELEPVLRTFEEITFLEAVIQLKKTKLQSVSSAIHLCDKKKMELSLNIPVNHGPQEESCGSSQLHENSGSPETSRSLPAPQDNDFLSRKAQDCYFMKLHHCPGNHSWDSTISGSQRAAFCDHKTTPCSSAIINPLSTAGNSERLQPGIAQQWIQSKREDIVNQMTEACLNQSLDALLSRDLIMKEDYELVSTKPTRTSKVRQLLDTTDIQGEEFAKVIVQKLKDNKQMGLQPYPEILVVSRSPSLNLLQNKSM
How it was run: as §1

MAP3K10 = molecular target: T7, MAP3K10 (Homo sapiens, UniProt Q02779); conditions: read-out: Inhibitory effect (%) MAP3K10
T7 construct: purchased ProQinase (33PanQinase Activity Assay)
T7 sequence (Q02779 whole entry): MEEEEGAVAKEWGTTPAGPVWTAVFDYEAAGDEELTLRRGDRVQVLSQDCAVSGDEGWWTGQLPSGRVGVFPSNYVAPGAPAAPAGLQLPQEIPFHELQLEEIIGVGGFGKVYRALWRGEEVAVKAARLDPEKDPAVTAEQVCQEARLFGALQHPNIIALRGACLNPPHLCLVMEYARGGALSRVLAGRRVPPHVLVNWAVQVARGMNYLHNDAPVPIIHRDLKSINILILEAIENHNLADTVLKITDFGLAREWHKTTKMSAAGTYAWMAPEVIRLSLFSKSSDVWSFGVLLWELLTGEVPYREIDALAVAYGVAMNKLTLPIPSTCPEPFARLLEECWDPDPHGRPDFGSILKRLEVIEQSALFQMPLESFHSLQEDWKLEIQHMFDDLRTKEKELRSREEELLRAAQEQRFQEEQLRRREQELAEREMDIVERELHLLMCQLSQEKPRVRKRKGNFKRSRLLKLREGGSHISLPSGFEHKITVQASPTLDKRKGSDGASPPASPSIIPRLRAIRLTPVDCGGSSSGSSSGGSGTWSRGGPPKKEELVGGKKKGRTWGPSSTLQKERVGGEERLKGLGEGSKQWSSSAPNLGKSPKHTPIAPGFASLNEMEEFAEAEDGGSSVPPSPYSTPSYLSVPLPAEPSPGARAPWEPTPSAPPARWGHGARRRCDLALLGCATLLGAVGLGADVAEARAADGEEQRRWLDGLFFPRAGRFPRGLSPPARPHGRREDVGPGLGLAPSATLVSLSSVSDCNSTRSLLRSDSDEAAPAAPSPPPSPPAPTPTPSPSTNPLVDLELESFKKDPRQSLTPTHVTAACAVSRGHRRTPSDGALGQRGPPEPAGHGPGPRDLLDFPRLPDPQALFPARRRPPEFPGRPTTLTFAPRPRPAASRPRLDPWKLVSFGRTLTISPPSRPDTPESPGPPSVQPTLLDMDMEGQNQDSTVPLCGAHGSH
How it was run: as §1

PRKD2 = molecular target: T8, PRKD2 (Homo sapiens, UniProt Q9BZL6); conditions: read-out: Inhibitory effect (%) PRKD2
T8 construct: purchased ProQinase (33PanQinase Activity Assay)
T8 sequence (Q9BZL6 1-878): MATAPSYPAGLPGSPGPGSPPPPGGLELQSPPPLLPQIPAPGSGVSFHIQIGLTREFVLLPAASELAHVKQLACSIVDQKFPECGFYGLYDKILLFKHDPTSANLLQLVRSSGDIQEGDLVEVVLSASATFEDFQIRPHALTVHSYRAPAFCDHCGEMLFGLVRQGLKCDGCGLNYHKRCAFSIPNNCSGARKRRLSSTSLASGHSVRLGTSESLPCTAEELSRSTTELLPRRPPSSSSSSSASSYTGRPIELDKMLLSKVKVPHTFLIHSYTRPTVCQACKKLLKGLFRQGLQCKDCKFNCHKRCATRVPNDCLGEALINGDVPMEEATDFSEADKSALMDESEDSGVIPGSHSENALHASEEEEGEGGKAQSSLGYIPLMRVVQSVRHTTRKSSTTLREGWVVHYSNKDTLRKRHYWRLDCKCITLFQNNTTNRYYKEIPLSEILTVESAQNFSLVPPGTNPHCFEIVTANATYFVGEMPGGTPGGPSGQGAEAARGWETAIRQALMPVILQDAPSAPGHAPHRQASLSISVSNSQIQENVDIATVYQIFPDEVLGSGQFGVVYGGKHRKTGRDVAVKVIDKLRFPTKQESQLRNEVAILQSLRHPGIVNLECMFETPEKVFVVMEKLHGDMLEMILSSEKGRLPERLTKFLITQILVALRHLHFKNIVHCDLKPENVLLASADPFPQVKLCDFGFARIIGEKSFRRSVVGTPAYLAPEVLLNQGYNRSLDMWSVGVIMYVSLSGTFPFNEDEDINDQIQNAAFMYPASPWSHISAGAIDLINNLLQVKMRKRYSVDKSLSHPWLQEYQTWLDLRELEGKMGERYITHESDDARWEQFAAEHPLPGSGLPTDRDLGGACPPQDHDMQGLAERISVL
How it was run: as §1

BTK = molecular target: T9, BTK (Homo sapiens, UniProt Q06187); conditions: read-out: Inhibitory effect (%) BTK
T9 construct: purchased Proqinase, Germany
T9 sequence (Q06187 whole entry): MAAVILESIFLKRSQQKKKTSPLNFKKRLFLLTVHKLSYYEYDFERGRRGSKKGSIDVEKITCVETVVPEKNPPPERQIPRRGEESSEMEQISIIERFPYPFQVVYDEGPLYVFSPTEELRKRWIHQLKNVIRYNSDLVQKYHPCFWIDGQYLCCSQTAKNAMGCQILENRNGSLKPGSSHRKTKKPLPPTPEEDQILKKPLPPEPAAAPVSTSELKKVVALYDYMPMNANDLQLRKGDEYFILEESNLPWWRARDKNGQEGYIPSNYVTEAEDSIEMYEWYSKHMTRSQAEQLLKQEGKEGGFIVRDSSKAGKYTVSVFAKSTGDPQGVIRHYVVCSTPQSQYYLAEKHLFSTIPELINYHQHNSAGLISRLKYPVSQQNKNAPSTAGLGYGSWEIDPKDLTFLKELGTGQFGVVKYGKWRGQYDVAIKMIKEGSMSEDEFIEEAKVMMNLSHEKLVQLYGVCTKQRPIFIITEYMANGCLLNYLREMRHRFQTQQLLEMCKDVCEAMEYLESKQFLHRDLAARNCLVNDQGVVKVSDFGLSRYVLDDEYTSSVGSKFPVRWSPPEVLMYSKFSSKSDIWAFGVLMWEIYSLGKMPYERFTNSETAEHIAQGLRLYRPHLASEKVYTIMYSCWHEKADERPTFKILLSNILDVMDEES
How it was run: as §1

PAK2 = molecular target: T10, PAK2 (Homo sapiens, UniProt Q13177); conditions: read-out: Inhibitory effect (%) PAK2
T10 construct: purchased ProQinase (33PanQinase Activity Assay)
T10 sequence (Q13177 whole entry): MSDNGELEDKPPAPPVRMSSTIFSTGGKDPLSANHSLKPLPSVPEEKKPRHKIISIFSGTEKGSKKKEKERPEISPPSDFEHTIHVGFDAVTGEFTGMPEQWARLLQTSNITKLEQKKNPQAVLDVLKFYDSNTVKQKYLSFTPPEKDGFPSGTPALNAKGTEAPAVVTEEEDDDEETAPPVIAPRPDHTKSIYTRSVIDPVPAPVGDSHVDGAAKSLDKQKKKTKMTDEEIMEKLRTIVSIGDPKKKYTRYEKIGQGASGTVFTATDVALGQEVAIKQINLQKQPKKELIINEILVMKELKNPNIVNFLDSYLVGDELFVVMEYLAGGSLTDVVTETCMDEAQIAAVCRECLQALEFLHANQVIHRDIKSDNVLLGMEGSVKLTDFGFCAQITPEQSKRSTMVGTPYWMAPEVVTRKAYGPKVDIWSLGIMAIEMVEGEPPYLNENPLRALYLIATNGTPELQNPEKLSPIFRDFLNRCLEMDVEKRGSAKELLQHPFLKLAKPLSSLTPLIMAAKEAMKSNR
How it was run: as §1

AXL = molecular target: T11, AXL (Homo sapiens, UniProt P30530); conditions: read-out: Inhibitory effect (%) AXL
T11 construct: purchased Proqinase, Germany
T11 sequence (P30530 26-894): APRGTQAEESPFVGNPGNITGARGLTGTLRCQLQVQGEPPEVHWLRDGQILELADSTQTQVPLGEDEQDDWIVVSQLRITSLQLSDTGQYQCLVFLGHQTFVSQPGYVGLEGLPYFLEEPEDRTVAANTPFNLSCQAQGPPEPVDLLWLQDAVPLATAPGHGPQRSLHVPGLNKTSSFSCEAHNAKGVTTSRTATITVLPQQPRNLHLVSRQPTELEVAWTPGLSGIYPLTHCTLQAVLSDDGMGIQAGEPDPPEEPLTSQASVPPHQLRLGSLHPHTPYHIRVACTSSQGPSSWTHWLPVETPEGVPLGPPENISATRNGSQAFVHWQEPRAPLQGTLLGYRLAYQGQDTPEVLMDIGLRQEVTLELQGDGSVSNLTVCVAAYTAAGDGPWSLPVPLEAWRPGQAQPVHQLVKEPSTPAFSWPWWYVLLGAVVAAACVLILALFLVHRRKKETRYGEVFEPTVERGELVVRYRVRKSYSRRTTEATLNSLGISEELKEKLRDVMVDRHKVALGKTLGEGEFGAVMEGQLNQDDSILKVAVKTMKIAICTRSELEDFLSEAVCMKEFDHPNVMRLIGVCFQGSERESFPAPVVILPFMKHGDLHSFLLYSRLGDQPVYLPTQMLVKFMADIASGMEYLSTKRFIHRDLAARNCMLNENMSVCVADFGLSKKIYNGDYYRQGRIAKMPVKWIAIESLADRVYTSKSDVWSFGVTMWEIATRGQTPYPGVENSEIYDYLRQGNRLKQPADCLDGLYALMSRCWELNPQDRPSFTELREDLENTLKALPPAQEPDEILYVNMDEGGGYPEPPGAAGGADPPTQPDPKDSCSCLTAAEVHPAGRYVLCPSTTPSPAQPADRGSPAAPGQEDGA
How it was run: as §1

T1 sequence (Q96GD4 whole entry): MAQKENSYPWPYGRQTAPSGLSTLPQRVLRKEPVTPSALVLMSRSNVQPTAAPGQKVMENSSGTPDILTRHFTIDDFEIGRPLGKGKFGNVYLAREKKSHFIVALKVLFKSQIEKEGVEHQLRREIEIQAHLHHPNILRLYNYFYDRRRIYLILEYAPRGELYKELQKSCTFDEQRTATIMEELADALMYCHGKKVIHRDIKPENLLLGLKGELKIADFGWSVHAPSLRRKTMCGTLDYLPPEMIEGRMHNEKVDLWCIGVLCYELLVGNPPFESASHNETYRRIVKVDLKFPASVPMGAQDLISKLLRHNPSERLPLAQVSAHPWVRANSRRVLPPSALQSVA

Row | Compound | inhibition at 0.1 µM (AURKB) [%] | inhibition at 0.1 µM (FER) [%] | inhibition at 0.1 µM (NTRK1) [%] | inhibition at 0.1 µM (ABL1) [%] | inhibition at 0.1 µM (MAPK9) [%] | inhibition at 0.1 µM (RIPK2) [%] | inhibition at 0.1 µM (MAP3K10) [%] | inhibition at 0.1 µM (PRKD2) [%] | inhibition at 0.1 µM (BTK) [%] | inhibition at 0.1 µM (PAK2) [%] | inhibition at 0.1 µM (AXL) [%]
1 | c1ccc2c(-c3cnn4cc(-c5ccc(N6CCNCC6)cc5)cnc34)ccnc2c1 [LDN-193189, reference compound] | 3.93 | 14.4 | 14.1 | 12.5 | -21.3 | 91.1 | -26.4 | -23.1 | -12.4 | -2.66 | 10.7
2 | CN1CCC(=O)NCCNc2ccn3ncc(c3n2)-c2cccc(c2)C1 [OD29] | -11.2 | -7.91 | 69.6 | 18.7 | 5.44 | 62.5 | 1.57 | 5.45 | 7.22 | 7.91 | 5.83
3 | CN1CCc2cccc(c2)Nc2nccc(n2)N2CCCc3cc(ccc32)C1 [OD16] | 4.48 | -18.9 | -37.9 | -20.1 | -11 | 36.5 | 1.85 | 32.2 | -12 | -27.1 | -34.5
